Laboratory results from PubChem BioAssay (NCI).
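A five-concentration, 48-hour dose response in 96-well plates underlies each endpoint, interpolated linearly between surrounding concentrations. Abbreviation: GI50, concentration required for 50% inhibition of growth. TGI: total growth inhibition.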

Key:
Assay in all cases: NCI tumour cell line growth inhibition, 48 h
MDA-MB-231 breast = test system: MDA-MB-231 breast
SK-OV-3 ovarian = test system: SK-OV-3 ovarian
OVCAR-4 ovarian = test system: OVCAR-4 ovarian
A549 NSCLC = test system: A549 NSCLC
NCI/ADR-RES ovarian = test system: NCI/ADR-RES ovarian
PC-3 prostate = test system: PC-3 prostate
HOP-92 NSCLC = test system: HOP-92 NSCLC
786-0 renal = test system: 786-0 renal
MOLT-4 leukemia = test system: MOLT-4 leukemia
CAKI-1 renal = test system: CAKI-1 renal
HL-60(TB) leukemia = test system: HL-60(TB) leukemia
T-47D breast = test system: T-47D breast
SNB-75 CNS = test system: SNB-75 CNS
MALME-3M melanoma = test system: MALME-3M melanoma
MDA-MB-435 = test system: MDA-MB-435
EKVX NSCLC = test system: EKVX NSCLC
A498 renal = test system: A498 renal
NCI-H460 lung = test system: NCI-H460 lung
SNB-19 CNS = test system: SNB-19 CNS
SF-539 CNS = test system: SF-539 CNS
HCT-15 colon = test system: HCT-15 colon
SF-295 CNS = test system: SF-295 CNS
NCI-H226 lung = test system: NCI-H226 lung
UACC-257 melanoma = test system: UACC-257 melanoma
HOP-62 NSCLC = test system: HOP-62 NSCLC
CCRF-CEM leukemia = test system: CCRF-CEM leukemia
SK-MEL-2 melanoma = test system: SK-MEL-2 melanoma

Work on `O=C(/C(=C\c1ccc([N+](=O)[O-])cc1)S(=O)Cc1ccc(F)cc1)c1ccc(F)cc1` (centres undefined) yielded a GI50 (MDA-MB-231 breast) of 1.99 µM, a TGI (MDA-MB-231 breast) of 4.35 µM and a GI50 (SK-OV-3 ovarian) of 11.8 µM. It also gave a TGI (SK-OV-3 ovarian) of 24.2 µM, a GI50 (OVCAR-4 ovarian) of 1.84 µM and a TGI (OVCAR-4 ovarian) of 3.91 µM. The GI50 (A549 NSCLC) was 2.83 µM, the TGI (A549 NSCLC) was 10.2 µM and the GI50 (NCI/ADR-RES ovarian) was 2.43 µM. For the same molecule, the TGI (NCI/ADR-RES ovarian) was 6.98 µM, the GI50 (PC-3 prostate) was 1.69 µM and the TGI (PC-3 prostate) was 3.47 µM. For the same molecule, the GI50 (HOP-92 NSCLC) was 1.86 µM, the TGI (HOP-92 NSCLC) was 3.98 µM and the GI50 (786-0 renal) was 1.74 µM. The TGI (786-0 renal) was 3.92 µM, the GI50 (MOLT-4 leukemia) was 1.51 µM and the TGI (MOLT-4 leukemia) was 5.06 µM. It also gave a GI50 (CAKI-1 renal) of 2.07 µM, a TGI (CAKI-1 renal) of 5.54 µM and a GI50 (HL-60(TB) leukemia) of 2.09 µM. It also gave a TGI (HL-60(TB) leukemia) of 5.38 µM, a GI50 (T-47D breast) of 2.08 µM and a TGI (T-47D breast) of 6.57 µM. It also gave a GI50 (SNB-75 CNS) of 3.28 µM, a TGI (SNB-75 CNS) of 15.3 µM and a GI50 (MALME-3M melanoma) of 1.64 µM. The TGI (MALME-3M melanoma) was 3.55 µM, the GI50 (MDA-MB-435) was 1.84 µM and the TGI (MDA-MB-435) was 4.09 µM. For the same molecule, the GI50 (EKVX NSCLC) was 1.91 µM, the TGI (EKVX NSCLC) was 4.54 µM and the GI50 (A498 renal) was 6.19 µM. For the same molecule, the TGI (A498 renal) was 18.6 µM, the GI50 (NCI-H460 lung) was 2.13 µM and the TGI (NCI-H460 lung) was 4.7 µM. It also gave a GI50 (SNB-19 CNS) of 2.37 µM, a TGI (SNB-19 CNS) of 5.61 µM and a GI50 (SF-539 CNS) of 1.69 µM. It also gave a TGI (SF-539 CNS) of 3.37 µM, a GI50 (HCT-15 colon) of 1.64 µM and a TGI (HCT-15 colon) of 4.43 µM. It also gave a GI50 (SF-295 CNS) of 1.68 µM, a TGI (SF-295 CNS) of 3.72 µM and a GI50 (NCI-H226 lung) of 4.32 µM. For the same molecule, the TGI (NCI-H226 lung) was 21.9 µM, the GI50 (UACC-257 melanoma) was 1.79 µM and the TGI (UACC-257 melanoma) was 3.73 µM. For the same molecule, the GI50 (HOP-62 NSCLC) was 2.74 µM, the TGI (HOP-62 NSCLC) was 8.28 µM and the GI50 (CCRF-CEM leukemia) was 1.48 µM. For the same molecule, the TGI (CCRF-CEM leukemia) was 6.75 µM, the GI50 (SK-MEL-2 melanoma) was 2.2 µM and the TGI (SK-MEL-2 melanoma) was 5.47 µM.
